# Assay results published in patent US8241872B2, “Microorganism producing cyclic compound” (Astellas Pharma Inc., priority 2008, dated 2012).
# Non-standard residues stand in square brackets, D forms with d. Residues, ends and D or L forms follow the SMILES beside them. ξ: configuration not given here. ξOrn(N(OH)Ac) = CC(=O)N(O)CCCC(N)C(=O)O
# Assays:
# Experiment in all cases: Antifungal activity, broth microdilution method
# Assay type in all cases: cell-based
# [1] = system: Aspergillus niger ATCC6275
# Procedure: (§1) Antifungal activities for test fungi shown in Table 15 was determined by a broth microdilution method (Hikaru Kume and Toshikazu Yamazaki, Clinical Microbiology, Vol. 21, No. 5, pp. 573-580, 1994).
# [2] = system: Pseudallescheria boydii FP1987
# Procedure: as §1
# [3] = system: Cryptococcus neoformans FP1739
# Procedure: as §1
# [4] = system: Candida parapsilosis FP1980
# Procedure: as §1
# [5] = system: Trichophyton rubrum FP596
# Procedure: as §1
# [6] = system: Aspergillus flavus ATCC9643
# Procedure: as §1
# Fusarium solani FP1930 = system: Fusarium solani FP1930
# Procedure: as §1
# Candida glabrata FP1944 = system: Candida glabrata FP1944
# Procedure: as §1
# [7] = system: Aspergillus terreus SR0174
# Procedure: as §1
# [8] = system: Trichophyton mentagrophytes FP2103
# Procedure: as §1
# [9] = system: Alternaria alternata AHU9258
# Procedure: as §1
# Candida krusei FP1979 = system: Candida krusei FP1979
# Procedure: as §1
# Rhizopus oryzae FP1988 = system: Rhizopus oryzae FP1988
# Procedure: as §1
# [10] = system: Aspergillus fumigatus FP1305
# Procedure: as §1
# [11] = system: Trichosporon asahi FP2044
# Procedure: as §1
# [12] = system: Candida guilliermondii FP2086
# Procedure: as §1
compound,measurement,setting,value
CC(=O)N(O)CCCC1NC(=O)C(CCCN(O)C(C)=O)NC(=O)C(Cc2ccccc2)NC(=O)C(CC(C)C)NC(=O)C(CC(N)=O)NC(=O)C(CCCN(O)C(C)=O)NC1=O (stereo not shown) [compound B] (cyclo([ξOrn(N(OH)Ac)][ξOrn(N(OH)Ac)][ξOrn(N(OH)Ac)]NLF); configuration not given here),MEC (minimum effective concentration),[1],0.78 µg/mL
same,MEC (minimum effective concentration),[2],0.2 µg/mL
same,MEC (minimum effective concentration),[3],0.2 µg/mL
same,MEC (minimum effective concentration),[4],0.39 µg/mL
same,MEC (minimum effective concentration),[5],1.25 µg/mL
same,MEC (minimum effective concentration),[6],0.2 µg/mL
same,MEC (minimum effective concentration),Fusarium solani FP1930,0.2 µg/mL
same,MEC (minimum effective concentration),Candida glabrata FP1944,0.31 µg/mL
same,MEC (minimum effective concentration),[7],0.31 µg/mL
same,MEC (minimum effective concentration),[8],0.78 µg/mL
same,MEC (minimum effective concentration),[9],0.1 µg/mL
same,MEC (minimum effective concentration),Candida krusei FP1979,0.31 µg/mL
same,MEC (minimum effective concentration),Rhizopus oryzae FP1988,25 µg/mL
same,MEC (minimum effective concentration),[10],0.31 µg/mL
same,MEC (minimum effective concentration),[11],0.2 µg/mL
same,MEC (minimum effective concentration),[12],0.31 µg/mL
